Measurements: ChEMBL document CHEMBL5252630, “18-Residue Peptaibols Produced by the Sponge-Derived Trichoderma sp. GXIMD 01001” (J Nat Prod, 2023)
Converted amounts (≈) assume the structure as drawn. The source made the active and inactive calls. The calls are words filed in the database; no cut-off is given here.

Columns and labels:
NCI-H1299 = experiment: Antiproliferative activity against human NCI-H1299 cells assessed as inhibition of cell growth incubated for 72 hrs by CCK-8 assay; type: functional, cell-based; conditions: NCI-H1299, 72 h
SW480 [1] = experiment: Inhibition of colony formation in human SW480 cells assessed as reduction in number of clonogenic cells at 0 to 2.5 uM incubated for 24 hrs followed by replacement with fresh medium and measured after 24 hrs by crystal violet staining based analysis; type: functional, cell-based; conditions: dose 0-2.5 µM
Staphylococcus aureus = experiment: Antibacterial activity against Staphylococcus aureus ATCC 25923 assessed as inhibition of bacterial growth incubated for 24 hrs by microtiter plate reader analysis; type: functional
SW1990 = experiment: Antiproliferative activity against human SW1990 cells assessed as inhibition of cell growth incubated for 72 hrs by CCK-8 assay; type: functional, cell-based; conditions: SW1990, 72 h
SW480 [2] = experiment: Antiproliferative activity against human SW480 cells assessed as inhibition of cell growth incubated for 72 hrs by CCK-8 assay; type: functional, cell-based; conditions: SW480, 72 h
A549 = experiment: Antiproliferative activity against human A549 cells assessed as inhibition of cell growth incubated for 72 hrs by CCK-8 assay; type: functional, cell-based; conditions: A549, 72 h
[3] = system: Staphylococcus epidermidis; experiment: Antibacterial activity against Staphylococcus epidermidis ATCC 14990 assessed as inhibition of bacterial growth incubated for 24 hrs by microtiter plate reader analysis; type: functional
SW480 [4] = experiment: Induction of apoptosis in human SW480 cells assessed as increase in annexin V/PI positive cells incubated for 24 hrs by annexin V-FITC/PI staining based flow cytometry analysis; type: functional, cell-based; conditions: dose 0-2.5 µM
Pseudomonas aeruginosa = experiment: Antibacterial activity against Pseudomonas aeruginosa ATCC 47085 assessed as inhibition of bacterial growth incubated for 24 hrs by microtiter plate reader analysis; type: functional

**Q.** Which results are given for `CC[C@@](C)(NC(=O)[C@H](C)NC(=O)[C@H](C)NC(=O)C(C)(C)NC(C)=O)C(=O)N[C@](C)(CC)C(=O)N[C@@H](CCC(N)=O)C(=O)NC(C)(C)C(=O)N[C@H](C(=O)NC(C)(C)C(=O)NCC(=O)N[C@@H](CC(C)C)C(=O)NC(C)(C)C(=O)N1CCC[C@H]1C(=O)N[C@@H](CC(C)C)C(=O)NC(C)(C)C(=O)NC(C)(C)C(=O)N[C@@H](CCC(N)=O)C(=O)N[C@H](CO)Cc1ccccc1)C(C)C`?
**A.** IC50 (NCI-H1299): 1300 nM; inhibition (SW480 [1]): Active; MIC (Staphylococcus aureus): 45 µg/mL (≈ 25.3 µM); IC50 (SW1990): 460 nM; IC50 (SW480 [2]): 460 nM; IC50 (A549): 1300 nM; MIC [3]: > 180 µg/mL; Activity (SW480 [4]): Active; MIC (Pseudomonas aeruginosa): > 180 µg/mL

**Q.** With `O=C(N[C@H](CO)[C@H](O)c1ccc([N+](=O)[O-])cc1)C(Cl)Cl` [CHLORAMPHENICOL] as the compound, how does the MIC (Staphylococcus aureus) read?
**A.** 3.1 µg/mL (≈ 9.59 µM)

**Q.** What about the MIC [3] of the same compound?
**A.** 1.6 µg/mL (≈ 4.95 µM)

**Q.** And the MIC (Pseudomonas aeruginosa)?
**A.** > 180 µg/mL

**Q.** Which results are given for `CC[C@@](C)(NC(=O)[C@H](CCC(N)=O)NC(=O)[C@@](C)(CC)NC(=O)C(C)(C)NC(=O)[C@H](C)NC(=O)[C@H](C)NC(=O)C(C)(C)NC(C)=O)C(=O)N[C@H](C(=O)NC(C)(C)C(=O)NCC(=O)N[C@@H](CC(C)C)C(=O)NC(C)(C)C(=O)N1CCC[C@H]1C(=O)N[C@@H](CC(C)C)C(=O)NC(C)(C)C(=O)NC(C)(C)C(=O)N[C@@H](CCC(N)=O)C(=O)N[C@H](CO)Cc1ccccc1)C(C)C`?
**A.** IC50 (NCI-H1299): 4000 nM; MIC (Staphylococcus aureus): 23 µg/mL (≈ 12.9 µM); IC50 (SW1990): 1200 nM; IC50 (SW480 [2]): 1200 nM; IC50 (A549): 2800 nM; MIC [3]: 90 µg/mL (≈ 50.6 µM); MIC (Pseudomonas aeruginosa): > 180 µg/mL

**Q.** Which IC50 (NCI-H1299) does the source give for `CC[C@@](C)(NC(=O)[C@H](C)NC(=O)[C@H](CO)NC(=O)C(C)(C)NC(C)=O)C(=O)N[C@](C)(CC)C(=O)N[C@@H](CCC(N)=O)C(=O)N[C@](C)(CC)C(=O)N[C@H](C(=O)NC(C)(C)C(=O)NCC(=O)N[C@@H](CC(C)C)C(=O)NC(C)(C)C(=O)N1CCC[C@H]1C(=O)N[C@@H](CC(C)C)C(=O)NC(C)(C)C(=O)NC(C)(C)C(=O)N[C@@H](CCC(N)=O)C(=O)N[C@H](CO)Cc1ccccc1)C(C)C` here?
**A.** 3200 nM

**Q.** And the MIC (Staphylococcus aureus)?
**A.** 23 µg/mL (≈ 12.7 µM)

**Q.** What about the IC50 (SW1990) of the same compound?
**A.** 1100 nM

**Q.** What about the IC50 (SW480 [2]) of the same compound?
**A.** 1100 nM

**Q.** What about the IC50 (A549) of the same compound?
**A.** 2600 nM

**Q.** What about the MIC [3] of the same compound?
**A.** 90 µg/mL (≈ 49.7 µM)

**Q.** What about the MIC (Pseudomonas aeruginosa) of the same compound?
**A.** > 180 µg/mL

**Q.** Which IC50 (NCI-H1299) does the source give for `CC[C@@](C)(NC(=O)[C@H](C)NC(=O)[C@H](C)NC(=O)C(C)(C)NC(C)=O)C(=O)N[C@](C)(CC)C(=O)N[C@@H](CCC(N)=O)C(=O)N[C@](C)(CC)C(=O)N[C@H](C(=O)NC(C)(C)C(=O)NCC(=O)N[C@@H](CC(C)C)C(=O)NC(C)(C)C(=O)N1CCC[C@H]1C(=O)N[C@@H](CC(C)C)C(=O)NC(C)(C)C(=O)NC(C)(C)C(=O)N[C@@H](CCC(N)=O)C(=O)N[C@H](CO)Cc1ccccc1)C(C)C` here?
**A.** 3000 nM

**Q.** What about the MIC (Staphylococcus aureus) of the same compound?
**A.** 23 µg/mL (≈ 12.8 µM)

**Q.** And the IC50 (SW1990)?
**A.** 1500 nM

**Q.** And the IC50 (SW480 [2])?
**A.** 1500 nM

**Q.** And the IC50 (A549)?
**A.** 2700 nM

**Q.** What about the MIC [3] of the same compound?
**A.** > 180 µg/mL

**Q.** And the MIC (Pseudomonas aeruginosa)?
**A.** > 180 µg/mL

**Q.** How did the IC50 (NCI-H1299) turn out when `CC[C@@](C)(NC(=O)C(C)(C)NC(=O)[C@H](C)NC(=O)[C@H](C)NC(=O)C(C)(C)NC(C)=O)C(=O)N[C@@H](CCC(N)=O)C(=O)NC(C)(C)C(=O)N[C@H](C(=O)NC(C)(C)C(=O)NCC(=O)N[C@@H](CC(C)C)C(=O)NC(C)(C)C(=O)N1CCC[C@H]1C(=O)N[C@@H](CC(C)C)C(=O)NC(C)(C)C(=O)NC(C)(C)C(=O)N[C@@H](CCC(N)=O)C(=O)N[C@H](CO)Cc1ccccc1)C(C)C` was run?
**A.** 4700 nM

**Q.** And the MIC (Staphylococcus aureus)?
**A.** 45 µg/mL (≈ 25.5 µM)

**Q.** And the IC50 (SW1990)?
**A.** 900 nM

**Q.** And the IC50 (SW480 [2])?
**A.** 900 nM

**Q.** And the IC50 (A549)?
**A.** 2700 nM

**Q.** And the MIC [3]?
**A.** > 180 µg/mL

**Q.** What about the MIC (Pseudomonas aeruginosa) of the same compound?
**A.** > 180 µg/mL

**Q.** What does the source list for `CC[C@@H](C)[C@H](NC(=O)[C@@](C)(CC)NC(=O)[C@H](CCC(N)=O)NC(=O)[C@@](C)(CC)NC(=O)[C@@](C)(CC)NC(=O)[C@H](C)NC(=O)[C@H](CO)NC(=O)C(C)(C)NC(C)=O)C(=O)NC(C)(C)C(=O)NCC(=O)N[C@@H](CC(C)C)C(=O)NC(C)(C)C(=O)N1CCC[C@H]1C(=O)N[C@@H](CC(C)C)C(=O)NC(C)(C)C(=O)NC(C)(C)C(=O)N[C@@H](CCC(N)=O)C(=O)N[C@H](CO)Cc1ccccc1`?
**A.** IC50 (NCI-H1299): 2900 nM; MIC (Staphylococcus aureus): 45 µg/mL (≈ 24.7 µM); IC50 (SW1990): 960 nM; IC50 (SW480 [2]): 960 nM; IC50 (A549): 2800 nM; MIC [3]: > 180 µg/mL; MIC (Pseudomonas aeruginosa): > 180 µg/mL

**Q.** `CC[C@@](C)(NC(=O)C(C)(C)NC(=O)[C@H](C)NC(=O)[C@H](C)NC(=O)C(C)(C)NC(C)=O)C(=O)N[C@@H](CCC(N)=O)C(=O)NC(C)(C)C(=O)N[C@H](C(=O)NC(C)(C)C(=O)NCC(=O)N[C@@H](CC(C)C)C(=O)NC(C)(C)C(=O)N1CCC[C@H]1C(=O)N[C@@H](CC(C)C)C(=O)NC(C)(C)C(=O)NC(C)(C)C(=O)N[C@@H](CCC(N)=O)C(=O)N[C@H](CO)Cc1c[nH]c2ccccc12)C(C)C` was tested. Which IC50 (NCI-H1299) did it give?
**A.** 3400 nM

**Q.** And the MIC (Staphylococcus aureus)?
**A.** 23 µg/mL (≈ 12.7 µM)

**Q.** What about the IC50 (SW1990) of the same compound?
**A.** 1300 nM

**Q.** And the IC50 (SW480 [2])?
**A.** 880 nM

**Q.** What about the IC50 (A549) of the same compound?
**A.** 2500 nM

**Q.** And the MIC [3]?
**A.** 90 µg/mL (≈ 49.9 µM)

**Q.** And the MIC (Pseudomonas aeruginosa)?
**A.** > 180 µg/mL
